Results: US20080009418A1, “Selective Inhibitors” (Alchemia LTD., priority 2004, published 2008)

How the values were obtained:
Conditions in all cases: compound at 10 μM
Human Melanocortin (MC3) = biological target: T1, Human Melanocortin (MC3) (Homo sapiens, UniProt P41968); experiment: Radioligand binding, human melanocortin MC3 membranes, FlashPlate, [125I]-NDP-αMSH
T1 construct: purchased Perkin Elmer Biosignal
Summary of the method: (§1)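 Cloned human receptor membranes were coated onto FlashPlate wells and incubated with radioligand and compound (added from a 0.5 mM DMSO daughter plate) for 1 hour at room temperature in the dark. Scintillation counting gave percent inhibition, with DMSO defining total and reference ligand defining non-specific binding.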

Human neurokinin (NK1) = biological target: T2, Human neurokinin (NK1) (Homo sapiens, UniProt P25103); experiment: Radioligand binding, human neurokinin NK1 membranes, filtration, [125I]-Substance P
T2 construct: purchased Perkin Elmer Biosignal
T2 sequence (P25103 whole entry): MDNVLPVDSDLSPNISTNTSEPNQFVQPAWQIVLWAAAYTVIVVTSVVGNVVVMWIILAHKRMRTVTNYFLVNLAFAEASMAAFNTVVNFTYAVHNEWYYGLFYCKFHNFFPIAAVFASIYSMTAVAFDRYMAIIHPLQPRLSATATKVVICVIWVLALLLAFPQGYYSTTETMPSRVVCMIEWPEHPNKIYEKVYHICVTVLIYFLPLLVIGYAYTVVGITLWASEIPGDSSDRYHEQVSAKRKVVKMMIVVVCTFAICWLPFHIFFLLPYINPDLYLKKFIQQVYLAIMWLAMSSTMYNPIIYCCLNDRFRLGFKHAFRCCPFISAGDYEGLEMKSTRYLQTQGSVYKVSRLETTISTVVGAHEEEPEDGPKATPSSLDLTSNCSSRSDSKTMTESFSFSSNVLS
Summary of the method: (§2)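 Membranes from cloned human receptors were incubated with compound and radioligand for 1 hour at room temperature. Bound ligand was collected on 0.3% PEI-soaked filters, washed with cold 50 mM Tris-HCl pH 7.4, and counted by scintillation. Percent inhibition was computed against DMSO totals and reference-ligand nonspecific wells.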

Human opioid (ORL1) = biological target: T3, Human opioid (ORL1) (Homo sapiens, UniProt P41146); experiment: Radioligand binding, human opioid ORL1 membranes, FlashPlate, [125I]-Nociceptin
T3 construct: purchased Perkin Elmer Biosignal
T3 sequence (P41146 whole entry): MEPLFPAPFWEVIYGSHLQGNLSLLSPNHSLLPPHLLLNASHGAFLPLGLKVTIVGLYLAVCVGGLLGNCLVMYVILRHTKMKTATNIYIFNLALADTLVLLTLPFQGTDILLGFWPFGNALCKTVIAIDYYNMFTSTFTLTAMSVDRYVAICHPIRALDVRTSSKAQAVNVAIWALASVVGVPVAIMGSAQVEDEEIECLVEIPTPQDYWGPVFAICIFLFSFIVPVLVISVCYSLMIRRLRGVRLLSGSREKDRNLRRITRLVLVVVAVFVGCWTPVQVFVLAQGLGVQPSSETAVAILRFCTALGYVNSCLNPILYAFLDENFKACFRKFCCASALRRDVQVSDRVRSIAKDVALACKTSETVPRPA
Summary of the method: as §1

[1] = biological target: T4, Human neuropeptide Y (NPY-Y1) (Homo sapiens, UniProt P25929); experiment: Radioligand binding, human neuropeptide Y NPY-Y1 membranes, FlashPlate, [125I]-PYY
T4 construct: purchased Perkin Elmer Biosignal
T4 sequence (P25929 1-384): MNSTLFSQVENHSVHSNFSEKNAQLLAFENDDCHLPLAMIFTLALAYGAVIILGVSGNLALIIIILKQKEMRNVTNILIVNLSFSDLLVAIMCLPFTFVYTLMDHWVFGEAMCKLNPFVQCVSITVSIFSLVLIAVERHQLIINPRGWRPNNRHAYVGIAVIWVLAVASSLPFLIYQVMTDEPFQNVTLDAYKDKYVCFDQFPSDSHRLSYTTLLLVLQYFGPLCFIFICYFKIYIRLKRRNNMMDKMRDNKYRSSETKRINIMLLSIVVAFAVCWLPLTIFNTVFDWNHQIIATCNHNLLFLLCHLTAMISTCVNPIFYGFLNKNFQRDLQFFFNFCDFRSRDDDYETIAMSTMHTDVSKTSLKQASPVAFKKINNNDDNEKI
Summary of the method: as §1

Human δ-opioid (DOP) = biological target: T5, Human δ-opioid (DOP) (Homo sapiens, UniProt P41143); experiment: Radioligand binding, human δ-opioid (DOP) membranes, FlashPlate, [3H]-Bremazocine
T5 construct: purchased Perkin Elmer Biosignal
T5 sequence (P41143 whole entry): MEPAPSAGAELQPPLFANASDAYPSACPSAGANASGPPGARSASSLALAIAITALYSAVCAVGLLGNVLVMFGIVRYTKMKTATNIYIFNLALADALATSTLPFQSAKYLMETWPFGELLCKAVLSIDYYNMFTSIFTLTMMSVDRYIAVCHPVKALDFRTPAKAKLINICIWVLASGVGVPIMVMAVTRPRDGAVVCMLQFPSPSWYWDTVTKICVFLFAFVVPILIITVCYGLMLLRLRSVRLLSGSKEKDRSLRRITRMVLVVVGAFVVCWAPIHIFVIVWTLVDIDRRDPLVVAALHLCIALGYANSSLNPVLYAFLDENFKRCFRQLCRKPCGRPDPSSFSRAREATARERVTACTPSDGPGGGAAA
Summary of the method: as §1

Human κ-Opioid (KOP) = biological target: T6, Human κ-Opioid (KOP) (Homo sapiens, UniProt P41145); experiment: Radioligand binding, human κ-opioid (KOP) membranes, filtration, [3H]-Diprenorphine
T6 construct: purchased Perkin Elmer Biosignal
T6 sequence (P41145 whole entry): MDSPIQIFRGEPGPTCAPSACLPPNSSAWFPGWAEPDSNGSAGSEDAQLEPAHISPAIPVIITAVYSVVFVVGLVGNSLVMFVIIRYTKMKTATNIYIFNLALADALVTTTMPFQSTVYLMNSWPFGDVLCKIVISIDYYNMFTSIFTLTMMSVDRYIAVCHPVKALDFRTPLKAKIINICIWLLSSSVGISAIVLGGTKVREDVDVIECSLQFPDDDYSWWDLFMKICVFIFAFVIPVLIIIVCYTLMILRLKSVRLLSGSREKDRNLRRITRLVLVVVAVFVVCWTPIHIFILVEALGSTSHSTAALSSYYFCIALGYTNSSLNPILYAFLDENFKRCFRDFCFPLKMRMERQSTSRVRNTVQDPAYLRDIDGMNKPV
Summary of the method: as §2

Human melanocortin (MC5) = biological target: T7, Human melanocortin (MC5) (Homo sapiens, UniProt P33032); experiment: Radioligand binding, human melanocortin MC5 membranes, FlashPlate, [125I]-NDP-αMSH
T7 construct: purchased Perkin Elmer Biosignal
T7 sequence (P33032 whole entry): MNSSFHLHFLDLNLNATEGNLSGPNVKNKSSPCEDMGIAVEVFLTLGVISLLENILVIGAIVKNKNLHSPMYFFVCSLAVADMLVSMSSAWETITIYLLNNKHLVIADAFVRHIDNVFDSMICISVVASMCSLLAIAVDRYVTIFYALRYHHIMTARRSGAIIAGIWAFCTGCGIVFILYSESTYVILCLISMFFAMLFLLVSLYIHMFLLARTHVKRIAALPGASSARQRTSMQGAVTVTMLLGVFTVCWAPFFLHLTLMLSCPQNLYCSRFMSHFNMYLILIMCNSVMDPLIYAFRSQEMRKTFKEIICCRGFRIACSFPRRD
Summary of the method: as §1

Human Melanocortin (MC4) = biological target: T8, Human Melanocortin (MC4) (Homo sapiens, UniProt P32245); experiment: Radioligand binding, human melanocortin MC4 membranes, FlashPlate, [125I]-NDP-αMSH
T8 construct: purchased Perkin Elmer Biosignal
T8 sequence (P32245 whole entry): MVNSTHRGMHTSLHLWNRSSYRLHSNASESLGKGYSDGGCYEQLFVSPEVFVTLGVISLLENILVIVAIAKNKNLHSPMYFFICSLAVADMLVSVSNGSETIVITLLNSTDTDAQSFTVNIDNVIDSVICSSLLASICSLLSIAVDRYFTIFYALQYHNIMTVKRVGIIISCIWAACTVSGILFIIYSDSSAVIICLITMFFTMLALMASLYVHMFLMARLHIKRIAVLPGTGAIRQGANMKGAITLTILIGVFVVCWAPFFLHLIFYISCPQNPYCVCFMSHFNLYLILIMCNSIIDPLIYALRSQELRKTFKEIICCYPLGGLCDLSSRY
Summary of the method: as §1

[2] = biological target: T9, Human melanin-concentrating hormone (MCH1) (Homo sapiens, UniProt Q99705); experiment: Radioligand binding, human melanin-concentrating hormone MCH1 membranes, FlashPlate, [125I]-S36057
T9 construct: purchased Perkin Elmer Biosignal
T9 sequence (Q99705 whole entry): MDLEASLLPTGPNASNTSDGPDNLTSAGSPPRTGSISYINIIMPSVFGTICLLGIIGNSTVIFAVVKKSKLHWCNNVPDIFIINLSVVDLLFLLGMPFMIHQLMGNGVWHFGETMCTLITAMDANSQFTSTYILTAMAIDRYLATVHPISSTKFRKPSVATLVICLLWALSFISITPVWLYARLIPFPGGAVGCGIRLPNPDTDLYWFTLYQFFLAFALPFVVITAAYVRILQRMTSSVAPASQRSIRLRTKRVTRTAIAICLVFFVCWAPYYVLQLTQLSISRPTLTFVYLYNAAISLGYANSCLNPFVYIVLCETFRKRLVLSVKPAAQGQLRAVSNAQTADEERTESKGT
Summary of the method: as §1

Mouse urotensin (mUR2) = biological target: T10, Mouse urotensin (mUR2) (Mus musculus, UniProt Q8VIH9); experiment: Radioligand binding, mouse urotensin mUR2 membranes, FlashPlate, [125I]-Urotensin II
T10 construct: purchased Perkin Elmer Biosignal
T10 sequence (Q8VIH9 1-385): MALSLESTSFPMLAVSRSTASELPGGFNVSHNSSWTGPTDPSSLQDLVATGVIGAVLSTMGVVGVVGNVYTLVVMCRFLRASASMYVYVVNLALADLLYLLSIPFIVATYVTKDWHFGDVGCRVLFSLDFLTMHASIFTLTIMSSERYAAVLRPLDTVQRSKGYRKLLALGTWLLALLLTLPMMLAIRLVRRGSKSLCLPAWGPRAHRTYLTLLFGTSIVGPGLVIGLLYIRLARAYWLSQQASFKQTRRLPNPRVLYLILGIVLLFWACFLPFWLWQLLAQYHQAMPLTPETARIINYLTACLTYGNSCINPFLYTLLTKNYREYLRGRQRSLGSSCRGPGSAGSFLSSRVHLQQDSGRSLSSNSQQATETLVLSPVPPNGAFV
Summary of the method: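 Cloned mouse urotensin (mUR2) receptor membranes from Perkin Elmer Biosignal were immobilized in FlashPlate microplates using a proprietary coating. Each well got 19.5 μl buffer, then 0.5 μl of DMSO, reference ligand, or compound. Adding 5 μl of [125I]-Urotensin II, diluted to 5× final concentration in binding buffer, started binding. Plates were sealed with TopSeal-A and incubated 1 hour at room temperature in the dark. Wells were counted for 30 seconds each on a TopCount after a 60-second delay, and percentage inhibition was calculated.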

Human μ-opioid (MOP) = biological target: T11, Human μ-opioid (MOP) (Homo sapiens, UniProt P35372); experiment: Radioligand binding, human μ-opioid (MOP) membranes, FlashPlate, [3H]-Naloxone
T11 construct: purchased Perkin Elmer Biosignal
T11 sequence (P35372 whole entry): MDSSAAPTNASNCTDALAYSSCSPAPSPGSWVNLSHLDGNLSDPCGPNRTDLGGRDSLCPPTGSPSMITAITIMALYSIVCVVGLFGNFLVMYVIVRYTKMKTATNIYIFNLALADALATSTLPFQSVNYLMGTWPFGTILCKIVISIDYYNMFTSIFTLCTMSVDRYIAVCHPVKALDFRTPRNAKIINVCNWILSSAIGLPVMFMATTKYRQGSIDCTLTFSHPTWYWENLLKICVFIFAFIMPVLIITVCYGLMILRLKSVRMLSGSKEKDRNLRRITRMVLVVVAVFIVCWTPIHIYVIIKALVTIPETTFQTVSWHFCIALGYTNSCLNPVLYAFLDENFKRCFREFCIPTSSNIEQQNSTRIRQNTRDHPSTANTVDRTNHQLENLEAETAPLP
Summary of the method: as §1

T1 sequence (P41968 whole entry): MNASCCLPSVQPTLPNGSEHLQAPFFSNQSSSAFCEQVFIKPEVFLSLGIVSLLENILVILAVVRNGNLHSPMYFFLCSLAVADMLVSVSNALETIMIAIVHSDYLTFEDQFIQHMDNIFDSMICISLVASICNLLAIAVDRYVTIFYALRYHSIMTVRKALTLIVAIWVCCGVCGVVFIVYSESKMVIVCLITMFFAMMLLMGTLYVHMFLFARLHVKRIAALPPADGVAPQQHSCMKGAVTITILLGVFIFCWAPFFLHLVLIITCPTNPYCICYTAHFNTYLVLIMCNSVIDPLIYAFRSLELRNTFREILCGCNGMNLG

CO[C@H]1[C@H](O)[C@@H](COCc2ccc(Cl)cc2)OC(OCc2ccc(-c3ccccc3)cc2)[C@@H]1NC(=O)CCCNC(=N)N (stereo partly shown) [compound 65]
A3 radioligand binding inhibition (Human Melanocortin (MC3); human melanocortin MC3 membranes): + (“+” indicates greater than 50% inhibition at 10 μM) | A8 radioligand binding inhibition (Human neurokinin (NK1); human neurokinin NK1 membranes): + (“+” indicates greater than 50% inhibition at 10 μM) | A10 radioligand binding inhibition (Human opioid (ORL1); human ORL1 membranes): − (“−” indicates less than 50% inhibition at 10 μM) | A9 radioligand binding inhibition ([1]; human NPY-Y1 membranes): − (“−” indicates less than 50% inhibition at 10 μM) | A1 radioligand binding inhibition (Human δ-opioid (DOP); human δ-opioid (DOP) membranes): − (“−” indicates less than 50% inhibition at 10 μM) | A2 radioligand binding inhibition (Human κ-Opioid (KOP); human κ-opioid (KOP) membranes): − (“−” indicates less than 50% inhibition at 10 μM) | A5 radioligand binding inhibition (Human melanocortin (MC5); human melanocortin MC5 membranes): + (“+” indicates greater than 50% inhibition at 10 μM) | A4 radioligand binding inhibition (Human Melanocortin (MC4); human melanocortin MC4 membranes): + (“+” indicates greater than 50% inhibition at 10 μM) | A6 radioligand binding inhibition ([2]; human MCH1 membranes): − (“−” indicates less than 50% inhibition at 10 μM) | A11 radioligand binding inhibition (Mouse urotensin (mUR2); mouse urotensin mUR2 membranes): − (“−” indicates less than 50% inhibition at 10 μM) | A7 radioligand binding inhibition (Human μ-opioid (MOP); human μ-opioid (MOP) membranes): + (“+” indicates greater than 50% inhibition at 10 μM)

N=C(N)NCCC(=O)N[C@H]1C(OCc2ccc(Cl)cc2)O[C@H](COCc2ccc3ccccc3c2)[C@@H](O)[C@@H]1OCc1ccc(Cl)cc1 (stereo partly shown) [compound 522]
A3: inhibition of radioligand binding, human melanocortin (MC3) (Human Melanocortin (MC3); [125I]-NDP-αMSH): + (“+” indicates greater than 50% inhibition at 10 μM) | A8: inhibition of radioligand binding, human neurokinin (NK1) (Human neurokinin (NK1); [125I]-Substance P): + (“+” indicates greater than 50% inhibition at 10 μM) | A10: inhibition of radioligand binding, human opioid (ORL1) (Human opioid (ORL1); [125I]-Nociceptin): + (“+” indicates greater than 50% inhibition at 10 μM) | A9: inhibition of radioligand binding, human neuropeptide Y (NPY-Y1) ([1]; [125I]-PYY, 10 µM): + (“+” indicates greater than 50% inhibition at 10 μM) | A1: inhibition of radioligand binding, human δ-opioid (DOP) (Human δ-opioid (DOP); [3H]-Bremazocine): − (“−” indicates less than 50% inhibition at 10 μM) | A2: inhibition of radioligand binding, human κ-opioid (KOP) (Human κ-Opioid (KOP); [3H]-Diprenorphine): + (“+” indicates greater than 50% inhibition at 10 μM) | A5: inhibition of radioligand binding, human melanocortin (MC5) (Human melanocortin (MC5); [125I]-NDP-αMSH): + (“+” indicates greater than 50% inhibition at 10 μM) | A4: inhibition of radioligand binding, human melanocortin (MC4) (Human Melanocortin (MC4); [125I]-NDP-αMSH): + (“+” indicates greater than 50% inhibition at 10 μM) | A6: inhibition of radioligand binding, human melanin-concentrating hormone (MCH1) ([2]; [125I]-S36057): + (“+” indicates greater than 50% inhibition at 10 μM) | A11: inhibition of radioligand binding, mouse urotensin (mUR2) (Mouse urotensin (mUR2); [125I]-Urotensin II): − (“−” indicates less than 50% inhibition at 10 μM) | A7: inhibition of radioligand binding, human μ-opioid (MOP) (Human μ-opioid (MOP); [3H]-Naloxone, 10 µM): − (“−” indicates less than 50% inhibition at 10 μM)

NCCCC(=O)NC1C(OCc2ccc3ccccc3c2)OC(COCc2ccccc2)C(O)C1OCc1ccc2ccccc2c1 (stereo not shown) [compound 462]
A3: inhibition of radioligand binding (Human Melanocortin (MC3); [125I]-NDP-αMSH, human MC3 membranes, 10 µM): − (“−” indicates less than 50% inhibition at 10 μM) | A8: inhibition of radioligand binding (Human neurokinin (NK1); [125I]-Substance P, human NK1 membranes): + (“+” indicates greater than 50% inhibition at 10 μM) | A10: inhibition of radioligand binding (Human opioid (ORL1); [125I]-Nociceptin, human ORL1 membranes, 10 µM): + (“+” indicates greater than 50% inhibition at 10 μM) | A9: inhibition of radioligand binding ([1]; [125I]-PYY, human NPY-Y1 membranes): − (“−” indicates less than 50% inhibition at 10 μM) | A1: inhibition of radioligand binding (Human δ-opioid (DOP); [3H]-Bremazocine, human DOP membranes): − (“−” indicates less than 50% inhibition at 10 μM) | A2: inhibition of radioligand binding (Human κ-Opioid (KOP); [3H]-Diprenorphine, human KOP membranes): − (“−” indicates less than 50% inhibition at 10 μM) | A5: inhibition of radioligand binding (Human melanocortin (MC5); [125I]-NDP-αMSH, human MC5 membranes): + (“+” indicates greater than 50% inhibition at 10 μM) | A4: inhibition of radioligand binding (Human Melanocortin (MC4); [125I]-NDP-αMSH, human MC4 membranes, 10 µM): − (“−” indicates less than 50% inhibition at 10 μM) | A6: inhibition of radioligand binding ([2]; [125I]-S36057, human MCH1 membranes): − (“−” indicates less than 50% inhibition at 10 μM) | A11: inhibition of radioligand binding (Mouse urotensin (mUR2); [125I]-Urotensin II, mouse mUR2 membranes): − (“−” indicates less than 50% inhibition at 10 μM) | A7: inhibition of radioligand binding (Human μ-opioid (MOP); [3H]-Naloxone, human MOP membranes): − (“−” indicates less than 50% inhibition at 10 μM)

COCC1OC(OCCc2ccccc2)C(NC(=O)CCCN)C(OCc2ccccc2)C1O (stereo not shown) [compound 217]
A3: inhibition of radioligand binding (Human Melanocortin (MC3); [125I]-NDP-αMSH, FlashPlate): − (“−” indicates less than 50% inhibition at 10 μM) | A8: inhibition of radioligand binding (Human neurokinin (NK1); [125I]-Substance P, filtration): + (“+” indicates greater than 50% inhibition at 10 μM) | A10: inhibition of radioligand binding (Human opioid (ORL1); [125I]-Nociceptin, FlashPlate): − (“−” indicates less than 50% inhibition at 10 μM) | A9: inhibition of radioligand binding ([1]; [125I]-PYY, FlashPlate): − (“−” indicates less than 50% inhibition at 10 μM) | A1: inhibition of radioligand binding (Human δ-opioid (DOP); [3H]-Bremazocine, FlashPlate): − (“−” indicates less than 50% inhibition at 10 μM) | A2: inhibition of radioligand binding (Human κ-Opioid (KOP); [3H]-Diprenorphine, filtration): − (“−” indicates less than 50% inhibition at 10 μM) | A5: inhibition of radioligand binding (Human melanocortin (MC5); [125I]-NDP-αMSH, FlashPlate): − (“−” indicates less than 50% inhibition at 10 μM) | A4: inhibition of radioligand binding (Human Melanocortin (MC4); [125I]-NDP-αMSH, FlashPlate): − (“−” indicates less than 50% inhibition at 10 μM) | A6: inhibition of radioligand binding ([2]; [125I]-S36057, FlashPlate): − (“−” indicates less than 50% inhibition at 10 μM) | A11: inhibition of radioligand binding (Mouse urotensin (mUR2); [125I]-Urotensin II, FlashPlate): − (“−” indicates less than 50% inhibition at 10 μM) | A7: inhibition of radioligand binding (Human μ-opioid (MOP); [3H]-Naloxone, FlashPlate): − (“−” indicates less than 50% inhibition at 10 μM)

CO[C@H]1[C@H](O)[C@@H](COCc2cccc(O)c2)OC(OCc2ccc(Cl)cc2)[C@@H]1NC(=O)CCCNC(=N)N (stereo partly shown) [compound 157]
A3 radioligand binding, percentage inhibition (Human Melanocortin (MC3); [125I]-NDP-αMSH): − (“−” indicates less than 50% inhibition at 10 μM) | A8 radioligand binding, percentage inhibition (Human neurokinin (NK1); [125I]-Substance P): + (“+” indicates greater than 50% inhibition at 10 μM) | A10 radioligand binding, percentage inhibition (Human opioid (ORL1); [125I]-Nociceptin): − (“−” indicates less than 50% inhibition at 10 μM) | A9 radioligand binding, percentage inhibition ([1]; [125I]-PYY): − (“−” indicates less than 50% inhibition at 10 μM) | A1 radioligand binding, percentage inhibition (Human δ-opioid (DOP); [3H]-Bremazocine): − (“−” indicates less than 50% inhibition at 10 μM) | A2 radioligand binding, percentage inhibition (Human κ-Opioid (KOP); [3H]-Diprenorphine): − (“−” indicates less than 50% inhibition at 10 μM) | A5 radioligand binding, percentage inhibition (Human melanocortin (MC5); [125I]-NDP-αMSH): + (“+” indicates greater than 50% inhibition at 10 μM) | A4 radioligand binding, percentage inhibition (Human Melanocortin (MC4); [125I]-NDP-αMSH): − (“−” indicates less than 50% inhibition at 10 μM) | A6 radioligand binding, percentage inhibition ([2]; [125I]-S36057): + (“+” indicates greater than 50% inhibition at 10 μM) | A11 radioligand binding, percentage inhibition (Mouse urotensin (mUR2); [125I]-Urotensin II): − (“−” indicates less than 50% inhibition at 10 μM) | A7 radioligand binding, percentage inhibition (Human μ-opioid (MOP); [3H]-Naloxone): − (“−” indicates less than 50% inhibition at 10 μM)
